Assay [1] concerns Kuramochi cells RB-WT. As to the kind of experiment: IncuCyte Kuramochi cell proliferation assay, RB-WT. The assay is classed as cell-based. Particulars: 72 hours, cell count. Put shortly:
(§1)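 GI50 was derived by curve-fitting DMSO-normalized fold change in nuclear count between 0 and 72 h. Counts came from images of Kuramochi cells carrying mApple-H2B. Compounds were dosed over 10 points at 1/2-log spacing from a 20 µM top concentration.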

For assay [2], the target named is CDK2/Cyclin E1 (Homo sapiens, UniProt P24941). As to the kind of experiment: ADP-Glo Luminescent Kinase Assay (CDK2/E1-37C). The class given is biochemical. As to conditions: 0.18 nM CDK2/Cyclin E1, 100 μM ATP, Histone H1, 37° C.; read-out: ADPGLO (CDK2/E1-37C): IC50. A digest of the protocol:
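IC50 fitted by four-parameter equation from ADP-Glo luminescence converted to % activity. Compounds were preincubated 60 min at 37 °C with enzyme, then kinase reaction ran 90 min at 37 °C with 0.18 nM enzyme, 100 μM ATP, Histone H1 ([…]), pH 7.5 HEPES, Mg2+, DTT.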
(In general: ADP-Glo first removes unused ATP, then detects ADP through luciferase.)

For assay [3], the system named is Kuramochi cells RB-KO. As to the kind of experiment: IncuCyte Kuramochi cell proliferation assay, RB-KO. The class given is cell-based. Particulars: 72 hours, cell count, batch mean. Put shortly: as §1

A value given as a limit tells only on which side of the number the result lay.

Consider `CC(C)(C(=O)N1CC2(CN(C(=O)c3cnn(Cc4ccc(F)cc4)c3)C[C@H]2COCc2cccc(-c3cccc(F)c3)c2C(=O)O)C1)C(F)(F)F` [I′-28], for which the figures for the IC50 in assay [1], in assay [2] and in assay [3] were 5 to 10 µM, at most 500 nM and above 10 µM, respectively.
For `O=C(O)c1c(CCC2CN(C(=O)c3cnn(Cc4ccc(F)cc4)c3)CC23CN(C(=O)C2(C(F)(F)F)CC2)C3)cccc1C1CCC(F)(F)CC1` (stereo not drawn) [I′-29] the same measures were above 10 µM, at most 500 nM and above 10 µM.
In the same order, the values of `CC(C)(C(=O)N1CC2(CN(C(=O)c3cnn(Cc4ccc(F)cc4)c3)C[C@H]2COCc2cccc(C3CCC(F)(F)CC3)c2C(=O)OCCN2CCOCC2)C1)C(F)(F)F` [I′-31] are 0.5 to 5 µM, at most 500 nM and 5 to 10 µM.
For the compound `O=C(O)c1c(OCCC2CN(C(=O)c3cnn(Cc4ccc(F)cc4)c3)CC23CN(C(=O)C2(C(F)(F)F)CC2)C3)cccc1C1CCC(F)(F)CC1` (stereo not drawn) [I′-32, 2-(4,4-difluorocyclohexyl)-6-(2-(6-(1-(4-fluorobenzyl)-1H-pyrazole-4-carbonyl)-2-(1-(trifluoromethyl)cyclopropane-1-carbonyl)-2,6-diazaspiro[3.4]octan-8-yl)ethoxy)benzoic acid], the IC50 is at most 0.5 µM in assay [1], at most 500 nM in assay [2] and 5 to 10 µM in assay [3].
Regarding `NC(=O)c1c(COC[C@@H]2CN(c3cc(F)c(F)c4ncsc34)CC23CN(C(=O)C2(C(F)(F)F)CC2)C3)cccc1C1CCC(F)(F)CC1` [I′-33, 2-(((6-(4,5-difluorobenzo[d]thiazol-7-yl)-2-(1-(trifluoromethyl)cyclopropane-1-carbonyl)-2,6-diazaspiro[3.4]octan-8-yl)methoxy)methyl)-6-(4,4-difluorocyclohexyl)benzamide], the IC50 in assay [1] is above 10 µM; in assay [2] it was at most 500 nM; in assay [3], above 10 µM.
For `O=C(O)c1c(COC[C@@H]2CN(c3cc(F)c(F)c4ncsc34)CC23CN(C(=O)C2(C(F)(F)F)CC2)C3)cccc1C1CCC(C(F)(F)F)CC1` (stereo partly drawn) [I′-34, (S)-2-(((6-(4,5-difluorobenzo[d]thiazol-7-yl)-2-(1-(trifluoromethyl)cyclopropane-1-carbonyl)-2,6-diazaspiro[3.4]octan-8-yl)methoxy)methyl)-6-(4-(trifluoromethyl)cyclohexyl)benzoicacid], the figures for the IC50 in assay [1], in assay [2] and in assay [3] were at most 0.5 µM, at most 500 nM and above 10 µM, respectively.
In the same order, the values of `CC(C)(C(=O)N1CC2(CN(C(=O)c3cnn(Cc4ccc(F)cc4)c3)C[C@H]2COCc2cccc(C3CCC(F)(F)CC3)c2C#N)C1)C(F)(F)F` [I′-35] are 0.5 to 5 µM, at most 500 nM and above 10 µM.
`CC1(C)C[C@@H]1C(=O)N1CC2(CN(C(=O)c3cnn(Cc4ccc(F)cc4)c3)C[C@H]2COCc2cccc(C3CCC(F)(F)CC3)c2C(=O)OCCN2CCOCC2)C1` [I′-36, 2-morpholinoethyl 2-(4,4-difluorocyclohexyl)-6-((((S)-2-((S)-2,2-dimethylcyclopropane-1-carbonyl)-6-(1-(4-fluorobenzyl)-1H-pyrazole-4-carbonyl)-2,6-diazaspiro[3.4]octan-8-yl)methoxy)methyl)benzoate]: the IC50 is at most 0.5 µM in assay [1], at most 500 nM in assay [2] and 0.5 to 5 µM in assay [3].
In the same order, the values of `CC(C)(C(=O)N1CC2(CN(C(=O)c3cnn(Cc4ccc(F)cc4)c3)C[C@H]2COCc2cccc(C3=CCC(F)(F)CC3)c2C(=O)O)C1)C(F)(F)F` [I′-37] are at most 0.5 µM, at most 500 nM and above 10 µM.
In the same order, the values of `CC(C)(C(=O)N1CC2(CN(C(=O)c3cnn(Cc4ccc(F)cc4)c3)C[C@H]2COCc2cccc(-c3ccc(F)cc3)c2C(=O)O)C1)C(F)(F)F` [I′-38] are 5 to 10 µM, at most 500 nM and above 10 µM.
For `CC(C)(C(=O)N1CC2(CN(C(=O)c3cnn(Cc4ccc(F)cc4)c3)C[C@H]2COCc2cccc(-c3ccccc3)c2)C1)C(F)(F)F` [I′-39], the figures for the IC50 in assay [1], in assay [2] and in assay [3] were above 10 µM, 500 to 5000 nM and above 10 µM, respectively.

These data come from patent US20260034123A1 (Cedilla Therapeutics, Inc., priority 2022, published 2026).
